# Experimental data as given in patent publication US6083920A, “Compositions for modulating intracellular inositol trisphosphate concentration” (priority 1996, dated 2000).
# What was measured:
# [1] = test system: InsP3 signalling in primary chick cortical neurons; experiment: Phosphoinositide hydrolysis assay (InsP3 signalling) in cultured primary cortical neurons; format: cell-based; conditions: for Ins-P-n, modulator Lsm:Sph: 20 μM Lysosphingomyelin + 20 μM Sphingosine; for Ins-P-n, modulator Psy:Sph: 20 μM Psychosine + 20 μM Sphingosine; for fold induction at 100 µM: Gallus gallus, Cortical neurone, 20 min, read-out: Ins-P-n (agonist alone); for physiological effect in this system: amino group amidated, non-ionic
# Experimental: Primary cultures of neurons were prepared from the telencephalon of white Leghorn chick embryos on the eighth day of their development (Rosenberg et al., J.Biol. Chem. 267:10601-10612, 1992). The neurons were seeded in 24-well plastic tissue culture plates that had been coated with L-polylysine. The density of the neurons was 10^5 cells per well, and they were cultured in Dulbecco's modified Eagle's medium/Ham's high glucose F-12 medium (1:1, vol:vol) containing 500 ng/L sodium selenite, 500 μg/L transferrin, and 165 pmole/L EGF. The cultures were maintained at 37° C. under 5% CO2 in air for 4 days, by which time the cells had differentiated into neurite-bearing cortical granulocytic neurons. These cultures of mature embryonic neurons were used for phosphoinositide hydrolysis assays (as described in Example 2).
# Receptor-stimulated and basal unstimulated hydrolysis of phosphoinositides was measured by the following procedure. In order to label the cellular phosphoinositides metabolically, the primary cultures of chick cortical neurons (described in Example 1) were incubated overnight with 0.5 ml Dulbecco's modified Eagle's medium containing 1 μCi [^3 H]myo-inositol per well. The cells were then washed twice with 1 ml Dulbecco's phosphate-buffered saline (PBS) and 0.5 ml of PBS containing 4.5 g/L glucose was added. Sphingosine, psychosine, lysosulphatide, or lysosphingomyelin, prepared as the hydrochloride salt dissolved in water, were then added to produce the desired extracellular concentration in specific wells, […] The cells were then washed twice with 1 ml PBS, and pre-incubated for 15 minutes at 37° C. with 0.5 ml PBS containing 10 mM LiCl and the compound to be tested was added. […] The tubes were vortexed thoroughly, then centrifuged at 500×g for 5 minutes to separate the aqueous and chloroform phases. For each sample, a 1.5-ml aliquot of the upper (aqueous) phase was applied to a small column containing BioRad AG1X8 resin (formate form). Free [^3 H]inositol and [^3 H]glycerophosphoinositol were washed through the column with 5 ml of a solution containing 5 mM sodium borate and 60 mM sodium formate. The total phosphorylated [^3 H] inositol fraction was eluted from the column for radiometric scintillation spectrometry analysis with 3 ml 1.0 M ammonium formate/0.1 M formic acid;
# In addition, a 0.5 ml aliquot of the lower (chloroform) phase of each sample was analyzed radiometrically by scintillation spectrometry in order to determine the quantity of lipid-bound [^3 H]myo-inositol. Estimation of phosphoinositide hydrolysis by phospholipase C is based upon the quantity of [^3 H]inositol phosphates produced, and is expressed as the percentage of the latter relative to total free and componential [^3 H]inositol (dpm ammonium formate+dpm chloroform fractions).
# Cultured primary chick cortical neurons that were prelabeled with [^3 H]myo-inositol were examined for enhanced InsP3 signalling in response to various agonists including glutamate, aspartate, and the metabotropic […] receptor agonists ibotenate and quisqualate.
# [2] = test system: calcium ion signalling in cortical neurons; experiment: Metabotropic receptor function: calcium ion signalling (fura 2) in intact cortical neurons; format: cell-based, chick; conditions: 10 μM agonist, 30 minutes at 37° C., fura 2 fluorescence ratio
# Experimental: Metabotropic receptor function was examined in intact neurons by assaying lysosphingolipid modulation of calcium ion signalling. Approximately 1×10^6 cortical neurons were cultured on rectangular L-polylysine-coated coverslips and loaded with lysocerebroside or lysosphingomyelin to a level of 150±20 pmoles per mg protein. The neurons were returned to complete Ham's high glucose medium/DMEM (1:1, vol:vol) and infiltrated with 5 μM fura 2/AM (Molecular Probes, Eugene, Oreg.). Fura 2 is a calcium chelator whose fluorescence absorbance shifts to shorter wavelength upon calcium ion binding is measurable in intact cells. A change in intraneuronal calcium ion concentration was monitored as a change in the fluorescence spectrum.
# The neurons were exposed to 10 μM glutamate agonist (for example, ibotenate) for 30 minutes at 37° C. The coverslips were then transferred to quartz cuvettes in medium containing 250 μM sulfinpyrazone to prevent fura 2/AM diffusion. Fluorescence ratios were recorded in a Perkin-Elmer LS-5 Fluorescence Spectrometer thermostatted at 37° C. at excitation wavelengths of 340 and 380 nm, a nd emission measurement at 500 nm. Calcium ion signalling in agonist-stimulated neurons was 3.0±0.2 arbitrary units for ibotenate-exposed neurons.
# rat C6 glioma cells = conditions: cited from earlier work
# [3] = Membrane insertion potential
# [4] = then 100 μM agonist 20 min, normalized to control = 1.00
Compound,"Ins-P-n, modulator Lsm:Sph [1, 4]","Ins-P-n, modulator Psy:Sph [1, 4]",fold induction at 100 µM [1],also measured
CCCCCCCCCCCCC/C=C/[C@@H](O)[C@@H](N)CO[C@@H]1O[C@H](CO)[C@H](O)[C@H](OS(=O)(=O)O)[C@H]1O [Lysosulphatide],,,,inhibitory effect on InsP3 enhancement caused by sphingosine or metabotropic glutamate receptor agonists ([1]; cortical neurons): without inhibitory effect
"NC(C(=O)O)c1cc(O)no1 (stereo not drawn) [Ibotenate, ibotenate]",2.10 ± 0.10,3.10 ± 0.35,3 ± 0.1,calcium ion signalling in agonist-stimulated neurons [2]: 3.0±0.2 arbitrary units
ceramide,,,,physiological effect in this system [1]: little or no physiological effect
"CN(C)CCCN1c2ccccc2Sc2ccc(Cl)cc21 [chlorpromazine, 10-(3-dimethylaminopropyl)-2-chlorphenothiazine]",,,,level of InsP3 (rat C6 glioma cells): raises the level of InsP3
"N[C@@H](CCC(=O)O)C(=O)O [Glutamate, glutamate]",3.00 ± 0.10,3.00 ± 0.35,3.3 ± 0.05,
"N[C@@H](CC(=O)O)C(=O)O [Aspartate, aspartate]",2.00 ± 0.05,2.65 ± 0.50,2.7 ± 0.06,"Ins-P-n, modulator Lsm ([1]; neurons preincubated with 20 μM Lysosphingomyelin 30 min, washed, then 100 μM agonist 20 min, normalized to control = 1.00): 1.00 ± 0.06; Ins-P-n, modulator Psy ([1]; neurons preincubated with 20 μM Psychosine 30 min, washed, then 100 μM agonist 20 min, normalized to control = 1.00): 1.00 ± 0.06"
CCCCCCCCCCCCC/C=C/[C@@H](O)[C@H](CO)NC(C)=O [N-acetyl sphingosine],,,,physiological effect in this system [1]: little or no physiological effect
CN[C@@H]1C[C@H]2O[C@@](C)([C@@H]1OC)n1c3ccccc3c3c4c(c5c6ccccc6n2c5c31)C(=O)NC4 [staurosporine],,,,"influence on the effects of sphingosine, lysocerebroside, or lysosphingomyelin on InsP3 production ([1]; brain neurons responsive to excitatory amino acids): does not influence"
CCCCCCCCCCCCCCC[C@@H](O)[C@@H](N)CO [sphinganine],,,,membrane insertion potential relative to sphingosine [3]: less than one third the membrane insertion potential of sphingosine
